From publication PMC7370100, “In Vitro Assessment of the Genotoxic Hazard of Novel Hydroxamic Acid- and Benzamide-Type Histone Deacetylase Inhibitors (HDACi)” (International Journal of Molecular Sciences, 2020)
Each block holds one compound with its values, some of them ahead of it.

Key:
XPA-deficient cells = test: Viability of XPA-deficient versus proficient fibroblasts (Alamar blue); format: cell-based, human; settings: 72 h, in words
Protocol: Figure 7 Sensitivity of nucleotide excision repair (NER) defective cells to hydroxamic acid- and benzamide-type HDACi. Viability of wild-type human fibroblasts and fibroblasts defective in nucleotide excision repair (NER) pathways (i.e., global genome nucleotide excision repair (GG-NER) or transcription-coupled nucleotide excision repair (TC-NER)) due to a defect in Xeroderma pigmentosum group A protein (XPA) or Cockayne syndrome protein B (CSB), respectively, was analyzed 72 h after the addition of HDACi by the Alamar blue assay, as described in Methods. The DNA intrastrand cross-linking agent cisplatin was used for control. Data shown are the mean ± SD from three independent experiments (n = 3) each performed in triplicate (N = 3); ns, not significant; *, p ≤ 0.05; **, p ≤ 0.01 as compared to the corresponding untreated controls (Student´s t-test).
V79 hamster lung cells, which are recommended in the OECD toxicology guidelines for hazard identification (i.e., cytotoxicity and genotoxicity) of chemicals, were purchased from the German Collection of Microorganisms and Cell Cultures (DSMZ, Braunschweig, Germany). They were cultured in Dulbecco´s modified Eagle medium and Ham´s F12 medium (DMEM/F12) (PromoCell, Heidelberg, Germany) containing 10% fetal calf serum at 37 °C in a humidified atmosphere containing 5% CO2. VC8 hamster cells were defective in DNA double-strand break (DSB) repair by homologous recombination (HR) due to the lack of functional BRCA2 protein [69, 70]. VC8 cells were provided by B. Kaina (Institute of Toxicology, Mainz, Germany). Nucleotide excision repair defective XPA and CSB deficient cells were also provided by B. Kaina and were described before. […]
Cell viability was determined using the Alamar blue assay, which reflected the mitochondrial activity. […] Afterwards, the Neutral red that was taken up by the cells was extracted (50% ethanol/1% of acetic acid, 15 min at room temperature (RT)) and absorbance (540 nm) was measured. […] Approximate IC50 (~IC50, see Supplementary Table S1) were calculated from the corresponding dose-response curves.

[1] = test system: VC8 hamster cells (BRCA1/2 defect); test: Viability of DSB repair defective VC8 versus wild-type V79 cells (Alamar blue); format: cell-based; settings: 72 h, Alamar blue, in words
Protocol: (§1) V79 hamster lung cells, which are recommended in the OECD toxicology guidelines for hazard identification (i.e., cytotoxicity and genotoxicity) of chemicals, were purchased from the German Collection of Microorganisms and Cell Cultures (DSMZ, Braunschweig, Germany). They were cultured in Dulbecco´s modified Eagle medium and Ham´s F12 medium (DMEM/F12) (PromoCell, Heidelberg, Germany) containing 10% fetal calf serum at 37 °C in a humidified atmosphere containing 5% CO2. VC8 hamster cells were defective in DNA double-strand break (DSB) repair by homologous recombination (HR) due to the lack of functional BRCA2 protein [69, 70]. VC8 cells were provided by B. Kaina (Institute of Toxicology, Mainz, Germany). Nucleotide excision repair defective XPA and CSB deficient cells were also provided by B. Kaina and were described before. They were grown in DMEM containing 10% fetal calf serum. Human neuroblastoma cells (IMR-32 and SH-SY5Y) were purchased from the German Collection of Microorganisms and Cell Cultures (DSMZ, Braunschweig, Germany) and were used as a model of malignant cells. They were grown in DMEM or RPMI (Roswell park memorial institute) medium, respectively, containing 10% fetal calf serum. If not stated otherwise, HDACi were added to the exponentially growing cells and analyses were performed 6 h to 72 h later.
(§2) Cell viability was determined using the Alamar blue assay, which reflected the mitochondrial activity. Viable cells were characterized by an effective mitochondrial metabolization of the non-fluorescent dye resazurin (Sigma, Steinheim, Germany) to fluorescent resorufin (excitation: 535 nm, emission: 590 nm). Relative viability in the untreated control was set to 100%. In addition, the Neutral red assay, which measures the integrity of lysosomal membranes, was used to monitor cytotoxicity. To this end, cells were incubated with the Neutral red solution (0.01%) in an atmosphere containing 5% CO2 for 90 min before they were fixed (1% formaldehyde/1% CaCl2). Afterwards, the Neutral red that was taken up by the cells was extracted (50% ethanol/1% of acetic acid, 15 min at room temperature (RT)) and absorbance (540 nm) was measured. If not stated otherwise, data are shown as the mean ± standard deviation (SD) of two to three independent experiments each performed in quadruplicate. Approximate IC50 (~IC50, see Supplementary Table S1) were calculated from the corresponding dose-response curves.

V79 cells [2] = test system: V79 cells
Protocol: The formation of DNA strand breaks and apurinic/apyrimidinic sites was monitored employing the alkaline comet assay [87], which is part of the OECD guideline of in vivo genotoxicity testings and detects DNA strand breaks (DNA single- and double-strand breaks) and alkali-labile sites [87]. Briefly, after aspiration of the medium and trypsinization, cells were mixed with 0.5% melting agarose and transferred onto agarose-coated (1.5%) slides. After lysis in alkaline buffer (pH 10) (1 h, 4 °C, light protection) and unwinding of the DNA in precooled lysis buffer (pH >13) (20 min, 4 °C, light protection), electrophoresis was performed (electric current: 300 mA constant; 1 V/cm). After neutralization in salt buffer (pH 7.5) and staining with propidium iodide solution (50 µg/mL), comets were evaluated by fluorescence microscopy. Quantification of migrated DNA was performed with TriTek Comet Score™ software Version 1.5, evaluating ≥50 cells per condition (blinded assessment). […] Fold increase in tail intensities of treated cells were calculated by relating the % DNA in tail of treated cells to that of the corresponding untreated controls, which were set to 1.0 (see Figure 2B).

V79 cells [3] = test system: V79 cells; remark: listed apart in the source
Protocol: We analyzed the frequency of micronuclei in binucleated cells, as described [86]. Briefly, logarithmically growing cells were treated with cytochalasin B (3 µg/m) for 24 h. After fixation with formaldehyde (3.7% in PBS, 20 min, RT) and washing with PBS, cells were permeabilized using precooled methanol (20 min, −20 °C.) After washing with PBS and rinsing the cell layer with PBS containing Triton X100 (PBST; 0.3% Triton X100 in PBS), DNA was stained by DAPI (4´,6-diamino-2-phenylindole) and the number of micronuclei was evaluated by fluorescence microscopy. Data shown are the mean ± SEM of three independent experiments with ≥1000 binucleated cells evaluated per experimental condition.

[4] = test system: SH-SY5Y neuroblastoma cells; test: Neutral red assay (cytotoxicity), SH-SY5Y cells; format: cell-based, human
Protocol: as §1, §2

V79 hamster lung cells [5] = test: Neutral red assay (cytotoxicity), V79 cells; format: cell-based
Protocol: as §1, §2

[6] = test system: IMR-32 neuroblastoma cells; test: Alamar blue assay (cell viability), IMR-32 cells; format: cell-based, human
Protocol: as §1, §2

[7] = test system: SH-SY5Y neuroblastoma cells; test: Alamar blue assay (cell viability), SH-SY5Y cells; format: cell-based, human
Protocol: as §1, §2

[8] = test system: IMR-32 neuroblastoma cells; test: Neutral red assay (cytotoxicity), IMR-32 cells; format: cell-based, human
Protocol: as §1, §2

V79 hamster lung cells [9] = test: Alamar blue assay (cell viability), V79 cells; format: cell-based; settings: Alamar blue assay, approximate IC50
Protocol: as §1, §2

[10] = 24 h, approximate IC50, read-out: IC50 - 24 h Treatment, SH-SY5Y
[11] = 72 h, approximate IC50, read-out: IC50 - 72 h Treatment, SH-SY5Y
[12] = 24 h, approximate IC50, read-out: IC50 - 24 h Treatment, IMR-32
[13] = 72 h, approximate IC50, read-out: IC50 - 72 h Treatment, IMR-32

SMILES: N.N.[Cl][Pt][Cl] [cisplatin]
sensitivity of XPA-deficient versus XPA proficient cells (XPA-deficient cells): XPA deficient cells are hypersensitive

SMILES: Nc1ccccc1NC(=O)c1ccc(CNc2nccc(-c3cccnc3)n2)cc1 [mocetinostat]
sensitivity of VC8 cells versus V79 cells [1]: hypersensitive

SMILES: COS(C)(=O)=O [MMS, methyl methanesulfonate]
DNA strand breaks (comet assay) (V79 cells [2]): substantially increased the level of DNA strand breaks
Mean (% DNA in tail) (V79 cells [2]; hamster, 0.25 mM): 50.9 % DNA in tail
frequency of micronuclei (V79 cells [3]): substantial clastogenicity

IC50 [6, 12]: 12 µM
IC50 [6, 13]: 2 µM
IC50 [7, 10]: 10 µM
IC50 [7, 11]: 3 µM
SMILES: CCCCON(Cc1ccc(C(=O)NO)cc1)C(=O)Nc1cc(C)cc(C)c1 [MPK264]
IC50 [4, 10]: 24 µM
IC50 [4, 11]: 3 µM
IC50 (V79 hamster lung cells [5]; 24 h, approximate IC50, read-out: IC50 - 24 h Treatment, V79): 20 µM
IC50 (V79 hamster lung cells [5]; 72 h, approximate IC50, read-out: IC50 - 72 h Treatment, V79): 17 µM
IC50 [8, 12]: 16 µM
IC50 [8, 13]: 2 µM
IC50 (V79 hamster lung cells [9]; 24 h, read-out: IC50 - 24 h Treatment, V79): 22 µM
IC50 (V79 hamster lung cells [9]; 72 h, read-out: IC50 - 72 h Treatment, V79): 19 µM

SMILES: C/C=C1\NC(=O)[C@H]2CSSCC/C=C/[C@H](CC(=O)N[C@H](C(C)C)C(=O)N2)OC(=O)[C@H](C(C)C)NC1=O [romidepsin]
sensitivity of VC8 cells versus V79 cells [1]: hypersensitive
